Reference: article PMC6259751, “Investigating Spectrum of Biological Activity of 4- and 5-Chloro-2-hydroxy-N-[2-(arylamino)-1-alkyl-2-oxoethyl]benzamides” (Molecules, 2011)
pIC50: −log10 of the molar value. ≈ marks a conversion by molar mass, not a printed value. Where “and” joins values, the source holds several entries; their conditions need not be identical. Equal entries are not always repeated. Where two headings read alike, the source gives them in different places.

Legend:
[1] = Lipophilicity determination by RP-HPLC (capacity factor k / log k); assay type: physicochemical; conditions: C18 column, MeOH 70% / H2O 30%, isocratic
Protocol: Hydrophobicities (log P/Clog P) of compounds 8 and 9 were calculated using two commercially available programs (ChemOffice Ultra 10.0 and ACD/LogP) and measured by means of RP-HPLC determination of capacity factors k with subsequent calculation of log k. The procedure was performed under isocratic conditions with methanol as an organic modifier in the mobile phase using an end-capped non-polar C18 stationary RP column. The results are shown in Table 1 and illustrated in Figure 1.
A Waters Alliance 2695 XE HPLC separation module and a Waters Photodiode Array Detector 2996 (Waters Corp., Milford, MA, USA) were used. A Symmetry® C18 5 μm, 4.6 × 250 mm, Part No. WAT054275 (Waters Corp., Milford, MA, USA) chromatographic column was used. The HPLC separation process was monitored by Empower™ 2 Chromatography Data Software, Waters 2009 (Waters Corp., Milford, MA, USA). A mixture of MeOH p.a. (70%) and H2O-HPLC – Mili-Q Grade (30%) was used as a mobile phase. The total flow of the column was 1.0 mL/min, injection volume, 30 μL, column temperature, 30 °C and sample temperature, 10 °C. The detection wavelength of 210 nm was chosen. The KI methanolic solution was used for the dead time (tD) determination. Retention times (tR) were measured in minutes. The capacity factors k were calculated using the Empower™ 2 Chromatography Data Software according to formula k = (tR - tD)/tD, where tR is the retention time of the solute, whereas tD denotes the dead time obtained using an unretained analyte. Log k, calculated from the capacity factor k, is used as the lipophilicity index converted to log P scale.

[2] = tested on: Mycobacterium tuberculosis MTB CNCTC My 331/88; test: In vitro antimycobacterial evaluation; assay type: cell-based; conditions: IC90 value
[3] = tested on: Mycobacterium avium MA CNCTC My 330/88; test: In vitro antimycobacterial evaluation; assay type: cell-based; conditions: IC90 value
[4] = tested on: Mycobacterium kansasii MK CNCTC My 235/80; test: In vitro antimycobacterial evaluation; assay type: cell-based; conditions: IC90 value
Candida tropicalis 156 = test: In vitro antifungal susceptibility testing (broth microdilution); assay type: cell-based; conditions: M27-A2 for yeasts, IC80 value
[5] = tested on: Trichophyton mentagrophytes 445; test: as above; assay type: cell-based; conditions: M38-A for moulds, IC50 value, read-out: MIC TM
[6] = tested on: photosynthetic electron transport (PET) in spinach chloroplasts; test: Inhibition of photosynthetic electron transport (PET) in spinach chloroplasts; assay type: biochemical, Spinacia oleracea L.; conditions: DCPIP photoreduction
Protocol: Chloroplasts were prepared from spinach (Spinacia oleracea L.) according to Masarovicova and Kralova. The inhibition of photosynthetic electron transport (PET) in spinach chloroplasts was determined spectrophotometrically (Genesys 6, Thermo Scientific, USA), using an artificial electron acceptor 2,6-dichlorophenol-indophenol (DCIPP) according to Kralova et al., and the rate of photosynthetic electron transport was monitored as a photoreduction of DCPIP. The measurements were carried out in phosphate buffer (0.02 mol/L, pH 7.2) containing sucrose (0.4 mol/L), MgCl2 (0.005 mol/L) and NaCl (0.015 mol/L). The chlorophyll content was 30 mg/L in these experiments and the samples were irradiated (~100 W/m^2) from 10 cm distance with a halogen lamp (250 W) using a 4 cm water filter to prevent warming of the samples. The studied compounds were dissolved in DMSO due to their limited water solubility. […] The inhibitory efficiency of the studied compounds was expressed by IC50 values, i.e. by molar concentration of the compounds causing 50% decrease in the oxygen evolution rate relative to the untreated control.

[7] = tested on: Staphylococcus aureus CCM 4516/08; test: In vitro antibacterial susceptibility testing (broth microdilution); conditions: read-out: MIC SA
[8] = tested on: methicilin resistant Staphylococcus aureus H 5996/08; test: as above; conditions: MRSA, read-out: MIC MRSA
[9] = tested on: Staphylococcus epidermidis H 6966/08; test: as above; conditions: read-out: MIC SE
[10] = tested on: Enterococcus sp. J 14365/08; test: as above; conditions: read-out: MIC EF

Row | SMILES | log k [1] | MIC ([2]; 14h) [µM] | MIC ([2]; 21h) [µM] | MIC ([3]; 14h) [µM] | MIC ([3]; 21h) [µM] | MIC ([4]; 14h) [µM] | MIC ([4]; 21h) [µM] | MIC (Candida tropicalis 156; 24h) [µM] | MIC (Candida tropicalis 156; 48h) [µM] | MIC ([5]; 72h) [µM] | MIC ([5]; 120h) [µM] | pIC50 [6] | MIC ([7]; CCM4516, 24 h) [µM] | MIC ([7]; CCM4516, 48 h) [µM] | MIC ([8]; 24 h) [µM] | MIC ([8]; 48 h) [µM] | MIC ([9]; H6966/08, 24 h) [µM] | MIC ([9]; H6966/08, 48 h) [µM] | MIC ([10]; SP.J14365/08, 24 h) [µM] | MIC ([10]; SP.J14365/08, 48 h) [µM]
1 | O=C(CNC(=O)c1cc(Cl)ccc1O)Nc1cccc(Cl)c1 [8a] | 0.2439 | 125 (≈ 42.4 µg/mL) | 125 (≈ 42.4 µg/mL) | 62.5 (≈ 21.2 µg/mL) | 62.5 (≈ 21.2 µg/mL) | 250 (≈ 84.8 µg/mL) | 250 (≈ 84.8 µg/mL) | 125 (≈ 42.4 µg/mL) | 125 (≈ 42.4 µg/mL) | 125 (≈ 42.4 µg/mL) | 125 (≈ 42.4 µg/mL) | 3.42 | > 250 | > 250 | > 250 | > 250 | > 250 | > 250 | > 250 | > 250
2 | CC(C)[C@H](NC(=O)c1cc(Cl)ccc1O)C(=O)Nc1cccc(Cl)c1 [8d] | 0.6124 | 32 (≈ 12.2 µg/mL) | 62.5 (≈ 23.8 µg/mL) | 125 (≈ 47.7 µg/mL) | 125 (≈ 47.7 µg/mL) | 62.5 (≈ 23.8 µg/mL) | 125 (≈ 47.7 µg/mL) | > 125 | > 125 | > 125 | > 125 | 4.86 | > 125 | > 125 | > 125 | > 125 | > 125 | > 125 | > 125 | > 125
3 | CC(C)[C@@H](NC(=O)c1cc(Cl)ccc1O)C(=O)Nc1cccc(Cl)c1 [8e] | 0.61 and 0.6114 | 32 (≈ 12.2 µg/mL) | 62.5 (≈ 23.8 µg/mL) | 62.5 (≈ 23.8 µg/mL) | 125 (≈ 47.7 µg/mL) | 62.5 (≈ 23.8 µg/mL) | 125 (≈ 47.7 µg/mL) | 15.6 (≈ 5.96 µg/mL) | 62.5 (≈ 23.8 µg/mL) | 125 (≈ 47.7 µg/mL) | 125 (≈ 47.7 µg/mL) | 4.69 | 15.6 (≈ 5.96 µg/mL) | 15.6 (≈ 5.96 µg/mL) | 31.2 (≈ 11.9 µg/mL) | 31.2 (≈ 11.9 µg/mL) | 31.2 (≈ 11.9 µg/mL) | 31.2 (≈ 11.9 µg/mL) | 62.5 (≈ 23.8 µg/mL) | 250 (≈ 95.3 µg/mL)
